Assay results taken from BindingDB's records for doi:10.1074/jbc.M003490200 (University of Virginia, 2000).
Each block holds one compound with its values, some of them ahead of it.

Biological target: T1, Leukotriene B4 receptor 2 (Homo sapiens, UniProt Q9NPC1)
T1 sequence (Q9NPC1 whole entry): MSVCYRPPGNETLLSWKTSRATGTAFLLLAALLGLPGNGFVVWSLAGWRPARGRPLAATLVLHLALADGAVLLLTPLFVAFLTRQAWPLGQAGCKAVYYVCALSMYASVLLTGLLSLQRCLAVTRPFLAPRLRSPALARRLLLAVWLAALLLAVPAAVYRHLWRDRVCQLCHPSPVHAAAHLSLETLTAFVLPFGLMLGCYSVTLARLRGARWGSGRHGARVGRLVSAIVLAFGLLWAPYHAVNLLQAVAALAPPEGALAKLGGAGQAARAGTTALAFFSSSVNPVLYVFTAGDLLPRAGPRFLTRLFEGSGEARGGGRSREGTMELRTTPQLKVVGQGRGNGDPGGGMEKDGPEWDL

SMILES: COc1cc(C(=O)NS(=O)(=O)c2ccccc2C)ccc1Cc1cn(C)c2ccc(NC(=O)OC3CCCC3)cc12 [cyclopentyl 3-(2-methoxy-4-((o-tolylsulfonyl)carbamoyl)benzyl)-1-methylindole-5-carbamate]
- Ki: 7400 nM

SMILES: O=C(Nc1ccc2c(=O)cc(-c3nnn[nH]3)oc2c1)c1ccc(OCCCCc2ccccc2)cc1 [CAS_103177-37-3]
- Ki: 3620 nM

SMILES: CC(C)(O)c1ccccc1CCC(S)c1cccc(C=Cc2ccc3ccc(Cl)cc3n2)c1 (stereo unspecified) [NSC_5311297]
- Ki: > 10000 nM

Compounds with a lower Ki, results first:

- Ki: 693 nM
SMILES: CCCCC/C=C\C\C=C/C=C/C=C/[C@@H](SC[C@H](N)C(=O)O)[C@@H](O)CCCC(=O)O [(5S-(5R*,6S*(S*),7E,9E,11Z,14Z))-6-((2-Amino-2-carboxyethyl)thio)-5-hydroxy-7,9,11,14-eicosatetraenoic acid]

- Ki: 3.48 nM
SMILES: CCCCC/C=C\C\C=C/C=C/C=C/[C@@H](SC[C@H](N)C(=O)NCC(=O)O)[C@@H](O)CCCC(=O)O [5S-hydroxy-6R-(S-cysteinylglycinyl)-7E,9E,11E,14Z-eicosatetraenoic acid]

- Ki: 3.35 nM
SMILES: CCCCCC=CCC=CC=CC=CC(SCC(NC(=O)CCC(N)C(=O)O)C(=O)NCC(=O)O)C(O)CCCC(=O)O (stereo unspecified) [CAS_5283121]
